The record followed here is patent US9399645B2, “Inhibitors of HIV replication” (Boehringer Ingelheim International GmbH, priority 2011, dated 2016).

Data set [1] deals with HIV-1. Nature of the data set: C8166 HIV-1 Luciferase Assay (EC50). As to conditions: Human immunodeficiency virus 1, C8166, 72 h. The class given is cell-based. Here is the method:
C8166 HIV-1 Luciferase Assay (Ec50)
The assay used to measure inhibition of HIV replication is as described in WO 2004/050643, pages 73-75, incorporated herein by reference, with the following modifications:
Serial dilutions of HIV-1 inhibitors are prepared in complete media from DMSO stock solutions. Eleven serial dilutions of desired concentration are prepared in a 1 mL deep well titer plate (96 wells). The 12th well contains complete media with no inhibitor and serves as the positive control. All samples contain the same concentration of DMSO (<0.1% DMSO). Inhibitor is added, to triplicate wells, of a 96 well tissue culture treated clear view black microtiter plate (Corning Costar catalogue #3904). The total volume per well is 200 μL of media containing the cells and inhibitor. The last row is reserved for uninfected C8166 LTRIuc cells to serve as the background blank control and the first row is media alone.
Count C8166 LTRIuc cells and place in a minimal volume of complete RPMI 1640 in a tissue culture flask (ex. 30×10^6 cells in 10 mL media/25 cm^2 flask). Infect cells with HIV-1 at a moi of 0.005. Incubate cells for 1.5 h at 37° C. on a rotating rack in a 5% CO2 incubator. Resuspend cells in complete RPMI to give a final concentration of 25,000-cells/well. Add cells to wells of 96 well microtiter plate containing inhibitors. Add 25,000 uninfected C8166-LTRIuc cells/well in 200 μL complete RPMI to last row for background control. Incubate cells at 37° C. in 5% CO2 incubator for 3 days.
50 μL Steady Glo (luciferase substrate T112=5 hours Promega catalogue # E2520) is added to each well of the 96 well plate. The relative light units (RLU) of luciferase are determined using a luminescence plate reader. The calculated % inhibition values are used to determine EC50, slope factor (n) and maximum inhibition (Imax).

Data set [2] in a line: Caco-2 Permeability Assay. The class given is in vitro ADME. To be noted: human, apparent permeability A to B, compound at 10 μM, apical buffer pH 6.0, basolateral buffer pH 7.4, read-out: Papp (cm/sec, *10^−6). An excerpt: Caco-2 Permeability Assay Caco-2 cells are purchased from Cell Culture Services as frozen instant cells at a concentration of 1*10^7 cells/vial. DMEM+glutamax-I culture media is purchased from Gibco (10569). Fetal bovine serum (FBS) is purchased from HyClone (SH30396.03). Pennicilin/Streptomycin antibiotics are purchased from Gibco (15140). MEM non-essential amino acids are purchased from Gibco (11140). Hank's balanced salt solution (HBSS) is purchased from Gibco (14025). Bovine serum albumin (BSA) is purchased from Sigma-Aldrich (A7906). MES low moisture is purchased from Sigma-Aldrich (M3671). HEPES is purchased from Sigma-Aldrich (H3375). Dimethyl Sulfoxide (DMSO) is purchased from EMD (MX1457-6). Complete DMEM media is prepared by adding 1 L of FBS, 100 mL of pen/strep and 110 mL of MEM non essential amino acids to 10 L of DMEM+glutamax-I. […] Caco-2 cells are seeded on HTS transwell 24-well plates purchased from Corning (3397). These polycarbonate membrane plates have a diameter of […] and pore size of 0.4 μm. The Caco-2 cells vial is thawed in a 37° C. water bath until only a small ice pellet is left. The vial is then transferred to the laminar flow hood and its exterior is extensively washed with 70% ethanol. The total content of the vial (2 mL) is transferred into a 50 mL tube containing 38 mL of complete DMEM. […] The seeding is done by the Hamilton star robotic station which is controlled with the Venus program. Each well will receive 600 μL of complete DMEM on its basolateral side and 200 μL of cells on its apical side. Each well receives 50 000 cells. The 24-well plates are then returned to an automated Liconic STX110 incubator set at 37° C., 5% CO2 and 100% humidity. The culture media for the cells is changed every two days except on weekends. These cells are maintained for a period of two weeks prior to the running of the permeability assay. Permeability assays are usually performed between day 15 and 18 after the initial seeding. […] Controls for the assay are mannitol for tight junction determination and Digoxin for efflux transporter (p-glycoprotein) expression. On the day of the assay, each compound is diluted to 10 μM in the buffer (apical for A to B). 6 μl of the 5 mM DMSO stock is added to 3 mL of the buffer in a 24-well 10 mL deep plate covered with a lid. The plate containing all the diluted compounds is spun for 10 min at 3000 rpm in a Rotanta 46 RSC centrifuge from Hettich to remove unsoluble compound. This dilution is used to add at the start of the incubation. Each compound is tested in duplicate. On the day of the assay, the culture media of the 24-well plate is removed and replaced with warm HBSS. The HBSS is then also removed and the Apical and Basolatral buffer are added to their respective side of the transwells. These steps are performed by the Hamilton Star robotic station. The plate is then placed in a 37° C. incubator and is left to equilibrate for 30 min. After 30 min of incubation a background sample (25 μL from each well) is taken from the receiver side (Basolateral for A to B), and replenished with warm buffer. These samples and all others afterwards are kept in a 96-well 1 mL plate. To start the assay, the donor compartment (apical for A to B) is emptied and replaced with new buffer containing the compound at 10 μM. Once the compounds are added, the plate is returned to the 37° C. incubator and the timer is started. In order to determine how much compound is actually added to each well, a 50 μL sample is taken from each compound dilution, this sample is refered to as the load. These steps and the following are performed by the Tecan Freedom EVO robotic station controlled via the Gemini software. For A-to-B Assay: Samples (190 μL) are taken from each basolateral (receiver) chamber at time points 0, 60, 120 and 180 min or at time points 0, 30, 60 and 90 min. From the 190 μL taken, 50 μL is transferred to the receiving plate and 140 μL is discarded.
For orientation: Caco-2 cells form a polarised layer with tight junctions and transporters.

As usually defined, the EC50 is the midpoint of the concentration-response curve. Consider `CNc1ccc(-c2nc(=O)n(CCC3CCCO3)c3c2oc2c(F)cc(-c4cnco4)cc23)cn1` (stereo not shown) [Compound 1029], for which, in data set [1], a half-maximal effect (EC50) was put at 19 nM. Further, in data set [2], the Papp A→B at 10 μM turned out to be 16.1 ×10⁻⁶ cm/s.
The matching figures for `CC[C@H]1C[C@@H](n2c(=O)nc(-c3cnn(C)c3)c3oc4cc(C#N)c(-c5ccn(C)n5)cc4c32)CCO1` [Compound 1054]: 32.2 nM and 20.3 ×10⁻⁶ cm/s.
The matching figures for `CC[C@H]1C[C@@H](n2c(=O)nc(-c3cnn(C)c3)c3oc4cnc(-c5cnco5)cc4c32)CCO1` [Compound 1089]: 30 nM and 18.6 ×10⁻⁶ cm/s.
The compound `CC[C@H]1C[C@@H](n2c(=O)nc(-c3cnn(C)c3)c3oc4cc(F)c(-c5cnc(C)o5)cc4c32)CCO1` [Compound 1044] came in with an EC50 in data set [1] of 22 nM. Besides, the Papp A→B at 10 μM in data set [2] was 12.4 ×10⁻⁶ cm/s.
The matching figures for `COc1cc2oc3c(-c4cnn(C)c4)nc(=O)n(CC[C@@H]4CCCO4)c3c2cc1-c1cnn(C)c1` [Compound 1056]: 8.3 nM and 6.7 ×10⁻⁶ cm/s.
On to `CC[C@H]1C[C@@H](n2c(=O)nc(-c3cnn(C)c3)c3oc4cc(F)c(-c5ccc(C(C)O)nc5)cc4c32)CCO1` (stereo partly shown) [Compound 1046], for which the EC50 in data set [1] is 110 nM. Also, in data set [2], the Papp A→B at 10 μM is 17.9 ×10⁻⁶ cm/s.
The matching figures for `CN(C)c1ccc(-c2nc(=O)n(CCC3CCCO3)c3c2oc2cc(F)c(-c4cnn(C)c4)cc23)cn1` (stereo not shown) [Compound 1034]: 23 nM and 6.8 ×10⁻⁶ cm/s.
In data set [1], `CC[C@H]1C[C@@H](n2c(=O)nc(-c3cnn(C)c3)c3oc4c(C)cc(-c5cnn(C)c5)cc4c32)CCO1` [Compound 1058] returned a concentration for a half-maximal effect (EC50) of 0.6 nM. For the same compound, the Papp A→B at 10 μM in data set [2] stood at 16.6 ×10⁻⁶ cm/s.
The matching figures for `CC[C@H]1C[C@@H](n2c(=O)nc(-c3cnn(C)c3)c3oc4ccc(-c5cnco5)nc4c32)CCO1` [Compound 1007]: 8.4 nM and 19.7 ×10⁻⁶ cm/s.
`CN(C)c1ccc(-c2nc(=O)n(CCC3CCCO3)c3c2oc2ccc(-c4cncs4)cc23)cn1` (stereo not shown) [Compound 1035] gave an EC50 in data set [1] of 9.4 nM. Moreover, the Papp A→B at 10 μM in data set [2] was 11.5 ×10⁻⁶ cm/s.
The matching figures for `CC[C@H]1C[C@@H](n2c(=O)nc(-c3cnn(C)c3)c3oc4ccc(-c5cnn(C)c5)nc4c32)C[C@@H](C)O1` [Compound 1009]: 4.6 nM and 27.6 ×10⁻⁶ cm/s.
`Cn1cc(-c2ccc3oc4c(-c5ccc(N6CCOCC6)nc5)nc(=O)n(CCC5CCCO5)c4c3c2)cn1` (stereo not shown) [Compound 1026]: in data set [1], the 50% effective concentration (EC50) was determined as 27.9 nM. In addition, the Papp A→B at 10 μM in data set [2] amounted to 7.4 ×10⁻⁶ cm/s.
The matching figures for `CC[C@H]1C[C@@H](n2c(=O)nc(-c3cnn(C)c3)c3oc4ncc(-c5cnn(C)c5)cc4c32)CCO1` [Compound 1061]: 20.3 nM and 9.3 ×10⁻⁶ cm/s.
The matching figures for `CC[C@H]1C[C@@H](n2c(=O)nc(-c3cnn(C)c3)c3oc4cc(C#N)c(-c5cn(C)cn5)cc4c32)CCO1` [Compound 1094]: 9.1 nM and 8.3 ×10⁻⁶ cm/s.
`C[C@@H]1C[C@H](n2c(=O)nc(-c3cnn(C)c3)c3oc4cc(C#N)c(-c5cnn(C)c5)nc4c32)C[C@H](C)O1` [Compound 1016] yielded a concentration for a half-maximal effect (EC50) in data set [1] of 89 nM. In data set [2], the Papp A→B at 10 μM is 15.9 ×10⁻⁶ cm/s.
In the case of `CC[C@H]1C[C@@H](n2c(=O)nc(-c3cccnc3)c3oc4cc(C#N)c(-c5cnn(C)c5)nc4c32)CCO1` [Compound 1019], the response in data set [1] was half-maximal at 52 nM (EC50). The Papp A→B at 10 μM in data set [2] was 22.5 ×10⁻⁶ cm/s.
Compound `CNc1ccc(-c2nc(=O)n(CCC3CCCO3)c3c2oc2ccc(-c4cncs4)cc23)cn1` (stereo not shown) [Compound 1028] showed a concentration for a half-maximal effect (EC50) in data set [1] of 50 nM. Moreover, the Papp A→B at 10 μM in data set [2] is 19.9 ×10⁻⁶ cm/s.
With `CC[C@H]1C[C@@H](n2c(=O)nc(-c3cnn(C)c3)c3oc4cc(C#N)c(-c5cnn(C)c5)nc4c32)CCO1` [Compound 1015], in data set [1], the concentration for a half-maximal effect (EC50) turned out to be 3 nM. Further, the Papp A→B at 10 μM in data set [2] worked out at 20.7 ×10⁻⁶ cm/s.
Regarding `C[C@@H]1C[C@H](n2c(=O)nc(-c3cnn(C)c3)c3oc4cc(C#N)c(-c5cnn(C)c5)cc4c32)C[C@H](C)O1` [Compound 1052], a half-maximal response in data set [1] (EC50) required 150 nM. Further, the Papp A→B at 10 μM in data set [2] was 18.2 ×10⁻⁶ cm/s.
The matching figures for `CC[C@@H]1C[C@H](n2c(=O)nc(-c3cnn(C)c3)c3oc4cnc(-c5cccnc5)cc4c32)CCO1` [Compound 1086]: 18 nM and 22.5 ×10⁻⁶ cm/s.
The matching figures for `Cn1cc(-c2cc3c(cc2F)oc2c(-c4ccc(N5CCC5)nc4)nc(=O)n(CCC4CCCO4)c23)cn1` (stereo not shown) [Compound 1033]: 7.6 nM and 6.9 ×10⁻⁶ cm/s.
The matching figures for `CNc1ccc(-c2nc(=O)n(CCC3CCCCO3)c3c2oc2ccc(-c4cnn(C)c4)cc23)cn1` (stereo not shown) [Compound 1036]: 6.8 nM and 7.6 ×10⁻⁶ cm/s.
For `CCC[C@H]1C[C@@H](n2c(=O)nc(-c3cnn(C)c3)c3oc4cc(C#N)c(-c5cnn(C)c5)nc4c32)CCO1` [Compound 1018], in data set [1], the EC50 came out at 22 nM. The Papp A→B at 10 μM in data set [2] is 19.8 ×10⁻⁶ cm/s.
With `Cn1cc(-c2cc(F)c3oc4c(-c5ccc(N6CCOCC6)nc5)nc(=O)n(CCC5CCCO5)c4c3c2)cn1` (stereo not shown) [Compound 1031], a half-maximal effect in data set [1] (EC50) was put at 14 nM. Besides, the Papp A→B at 10 μM in data set [2] was 6.4 ×10⁻⁶ cm/s.
The matching figures for `CC[C@H]1C[C@@H](n2c(=O)nc(-c3ccc(OC)cn3)c3oc4ccc(-c5cn(C)cn5)nc4c32)CCO1` [Compound 1101]: 17 nM and 32 ×10⁻⁶ cm/s.
The matching figures for `CC[C@H]1C[C@@H](n2c(=O)nc(-c3cnn(C)c3)c3oc4nc(C)c(-c5cnco5)cc4c32)CCO1` [Compound 1080]: 120 nM and 12.4 ×10⁻⁶ cm/s.
The matching figures for `CC[C@H]1C[C@@H](n2c(=O)nc(-c3cnn(C)c3)c3oc4ccc(-c5cncnc5)nc4c32)CCO1` [Compound 1004]: 21 nM and 14.1 ×10⁻⁶ cm/s.
`C[C@@H]1C[C@H](n2c(=O)nc(-c3cnn(C)c3)c3oc4ccc(-c5cnn(C)c5)nc4c32)C[C@H](C)O1` [Compound 1008] had a 50% effective concentration (EC50) in data set [1] of 73.9 nM. Further, the Papp A→B at 10 μM in data set [2] turned out to be 18.1 ×10⁻⁶ cm/s.
In turn, `CNc1ccc(-c2nc(=O)n(CCC3CCCO3)c3c2oc2cc(F)c(-c4cnn(C)c4)cc23)cn1` (stereo not shown) [Compound 1032] displayed an EC50 in data set [1] of 11.9 nM. For the same compound, the Papp A→B at 10 μM in data set [2] is 7.7 ×10⁻⁶ cm/s.
